Measurements published in patent US10626081B2, “Farnesoid X receptor agonists and uses thereof” (Metacrine, Inc., priority 2015, dated 2020).

How the values were obtained:
FXR [1] = target: T1, FXR (Homo sapiens, UniProt Q96RI1); experiment: In Vitro FXR Assay (PGL3): luciferase reporter in transfected CV-1 cells; format: cell-based; conditions: CV-1 cells transfected with hFXR, hRXR, PGL3-ECRE*6-luc; 18 h incubation; luminescence
T1 construct: expressed in transfected cells; host or cells: CV-1 cells
T1 sequence (Q96RI1 1-486): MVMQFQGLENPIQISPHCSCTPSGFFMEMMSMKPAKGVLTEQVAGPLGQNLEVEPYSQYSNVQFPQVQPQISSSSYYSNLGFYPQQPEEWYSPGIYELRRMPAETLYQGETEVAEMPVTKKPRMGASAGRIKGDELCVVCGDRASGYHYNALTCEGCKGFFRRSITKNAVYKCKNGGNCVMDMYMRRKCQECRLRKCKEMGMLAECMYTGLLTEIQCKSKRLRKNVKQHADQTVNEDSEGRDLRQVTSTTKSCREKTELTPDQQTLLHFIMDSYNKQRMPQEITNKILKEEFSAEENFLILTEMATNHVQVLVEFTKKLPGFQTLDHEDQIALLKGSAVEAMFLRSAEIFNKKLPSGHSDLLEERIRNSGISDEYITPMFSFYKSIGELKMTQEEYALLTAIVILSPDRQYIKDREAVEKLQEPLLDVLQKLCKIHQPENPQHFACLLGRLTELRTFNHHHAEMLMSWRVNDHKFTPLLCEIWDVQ
T1 sequence (P19793 1-462 partner): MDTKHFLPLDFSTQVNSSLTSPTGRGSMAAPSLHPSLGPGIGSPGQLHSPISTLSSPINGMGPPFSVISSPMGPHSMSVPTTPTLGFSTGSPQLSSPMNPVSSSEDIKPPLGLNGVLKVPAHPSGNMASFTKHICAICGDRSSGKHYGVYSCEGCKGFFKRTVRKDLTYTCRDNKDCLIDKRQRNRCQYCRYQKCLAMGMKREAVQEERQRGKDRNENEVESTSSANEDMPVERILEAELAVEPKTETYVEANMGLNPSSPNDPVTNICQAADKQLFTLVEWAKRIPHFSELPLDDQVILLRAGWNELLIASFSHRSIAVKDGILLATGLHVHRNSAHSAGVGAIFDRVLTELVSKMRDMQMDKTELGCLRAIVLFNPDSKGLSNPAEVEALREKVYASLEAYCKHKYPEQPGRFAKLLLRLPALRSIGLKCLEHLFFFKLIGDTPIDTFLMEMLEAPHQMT
Procedure: Example B-1: In Vitro FXR Assay (PGL3)
CV-1 cells were seeded at a density of 2,000,000 cells in a T175 flask with DMEM+10% charcoal double-stripped FBS and incubated at 37° C. in a 5% CO2 for 18 h (O/N).
After 18 h of incubation, the medium in the T175 flask was changed with fresh DMEM+10% charcoal super-stripped serum.
To prepare the transfection reaction mixture, the transfection reagent (X-tremeGENE HP from Roche, Cat #06 366 236 001) was added in to a 1.5 mL microcentrifuge tube labelled “A” at a ratio of 1:3 (DNA in transfection reagent in μL). OptiMEM medium (Life Technologies, Cat #31985-062) was added accordingly to provide a total volume of 1 mL. The transfection reaction mixture was then briefly vortexed and incubated at room temperature for 5 minutes.
In a separate 1.5 mL microcentrifuge tube labelled “B”, 100 μL OptiMEM and plasmids XPD90Gal pCMXhFXRfl, pCMXhRXRfl+PGL3-ECRE*6-luc+CMX-YFP in the ratio 2 μg:2 μg:18 μg:3 μg were added. This microcentrifuge tube “B” was then briefly vortexed and incubated at room temperature for 5 minutes.
The total volume in tube labelled “A” was then transferred in to tube labelled “B.” The mixture was then briefly vortexed and the transfection:DNA complex was then incubated for about 15-20 minutes at room temperature.
Following incubation, the transfection reagent/DNA mixture complex was then added to cells in the T175 flask and the cells were incubated at […] (O/N) at 37° C. in 5% CO2.
In a 96 well plate, a half logarithmic serial dilution was prepared. OptiMEM was used as the diluent. Using any of one of the compounds described herein, a compound stock solution of 10 mM was prepared. An initial 1:100 dilution was made into the first well for a final concentration of 100 μM. The final concentrations in the 96-well plate was prepared by using a multichannel pipette to transfer 5 μL of the diluted compound to 384-well plate in quadruplicate.
Cells in T175 flask were trypsinized and cells were resuspended in 40 mL phenol red free DMEM+10% charcoal super-stripped FBS. Typically, one T175 flask was sufficient to seed two 384 well plates. CV-1 cells were seeded at 45 μL cell suspension/well using a multi-channel pipet or a 384 multidrop dispenser. The cells were then incubated for 18 hrs, overnight.
After removing the plates from the incubator, the medium was flicked out of plate and 384 well plate was turned upside down onto paper towel. The remaining medium was gently tapped out. 15 μL lysis buffer was then added to each well using a multichannel pipet or a 384 well multi-drop dispenser. After incubation for 10 minutes at room temperature on shaker, 30 μL Luciferase buffer was added to each well. Luminescence counts were taken immediately using the Perkin Elmer Envision.
The ability of the compounds disclosed herein to […] FXR activity was quantified and the respective EC50 value was determined. Fex=fexaramine.

FXR [2] = target: T1, FXR; experiment: In Vitro FXR Assay (TK): TK-ECRE-luc reporter in transfected CV-1 cells; format: cell-based; conditions: CV-1 cells transfected with hFXR, hRXR, 18 h incubation, luminescence
Outline: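 Luciferase read-out from lysed CV-1 cells exposed 18 h to DMSO-diluted compounds. Cells had been transfected overnight with expression plasmids for hFXR and hRXR plus TK-ECRE-luc reporter and pCMX-YFP, grown in charcoal-stripped serum at 37 °C, 5% CO2.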

SMILES	Cmpd/Fex (ratio of the EC50 for the test compound relative to the EC50 of the Fexaramine control) (FXR [1])	EC50 (FXR [2])
COC(=O)/C=C/c1cccc(N(Cc2cccc(-c3ccccc3)c2)C(=O)C2CCCCC2)c1 [compound 82, (E)-Methyl 3-(3-(N-([1,1′-biphenyl]-3-ylmethyl)cyclohexanecarboxamido)phenyl) acrylate]	+ (‘+’ means Cmpd/Fex > 100)	> 10 µM
COC(=O)/C=C/c1cccc(N(Cc2ccccc2-c2ccccc2)C(=O)C2CCCCC2)c1 [compound 81, (E)-Methyl 3-(3-(N-([1,1′-biphenyl]-2-ylmethyl)cyclohexanecarboxamido)phenyl) acrylate]	+ (‘+’ means Cmpd/Fex > 100)	> 10 µM
COC(=O)/C=C/c1cccc(N(Cc2ccc(N3CCCCC3)cc2)C(=O)C2CCCCC2)c1 [compound 78, (E)-Methyl 3-(3-(N-(4-(piperidin-1-yl)benzyl)cyclohexanecarboxamido)phenyl) acrylate]	++ (‘++’ means Cmpd/Fex > 10 & < 100)	1 to 10 µM
COC(=O)/C=C/c1cccc(N(Cc2ccc(-c3cncs3)cc2)C(=O)C2CCCCC2)c1 [compound 69, (E)-Methyl 3-(3-(N-(4-(thiazol-5-yl)benzyl)cyclohexanecarboxamido)phenyl) acrylate]	+ (‘+’ means Cmpd/Fex > 100)	1 to 10 µM
COC(=O)/C=C/c1cccc(N(Cc2ccc(-c3ccc(N(C)C)cc3)cc2)C(=O)c2ccc(OC)cc2)c1 [compound 10, (E)-Methyl 3-(3-(N-((4′-(dimethylamino)-[1,1′-biphenyl]-4-yl)methyl)-4-methoxybenzamido)phenyl)acrylate]	+++ (‘+++’ means Cmpd/Fex < 10)	1 to 10 µM
CNc1ccc(-c2ccc(CN(C(=O)C3CCCCC3)c3cccc(/C=C/C(=O)OC)c3)cc2)cc1 [compound 61, (E)-Methyl 3-(3-(N-((4′-(methylamino)-[1,1′-biphenyl]-4-yl)methyl)cyclohexanecarboxamido)phenyl) acrylate]	+++ (‘+++’ means Cmpd/Fex < 10)	1 to 10 µM
COC(=O)/C=C/c1cccc(N(Cc2ccc(-c3ccncc3)cc2)C(=O)C2CCCCC2)c1 [compound 22, (E)-Methyl 3-(3-(N-(4-(pyridin-4-yl)benzyl)cyclohexanecarboxamido)phenyl) acrylate]	+ (‘+’ means Cmpd/Fex > 100)	1 to 10 µM
COC(=O)/C=C/c1cccc(N(Cc2ccc(-c3cccc(N(C)C)c3)cc2)C(=O)C2CCCCC2)c1 [compound 37, (E)-Methyl 3-(3-(N-((3′-(dimethylamino)-[1,1′-biphenyl]-4-yl)methyl)cyclohexanecarboxamido)phenyl) acrylate]	++ (‘++’ means Cmpd/Fex > 10 & < 100)	1 to 10 µM
CCc1cc(/C=C/C(=O)OC)cc(N(Cc2ccc(-c3ccc(N(C)C)cc3)cc2)C(=O)C2CCCCC2)c1 [compound 85, (E)-Methyl 3-(3-(N-((4′-(dimethylamino)-[1,1′-biphenyl]-4-yl)methyl)cyclohexanecarboxamido)-5-ethylphenyl)acrylate]	+++ (‘+++’ means Cmpd/Fex < 10)	1 to 10 µM
COC(=O)/C=C/c1ccc(C)c(N(Cc2ccc(-c3ccc(N(C)C)cc3)cc2)C(=O)C2CCCCC2)c1 [compound 42, (E)-Methyl 3-(3-(N-((4′-(dimethylamino)-[1,1′-biphenyl]-4-yl)methyl)cyclohexanecarboxamido)-4-methylphenyl)acrylate]	+++ (‘+++’ means Cmpd/Fex < 10)	1 to 10 µM
COC(=O)/C=C/c1cccc(N(Cc2ccc(-c3ccc(OC)cc3F)cc2)C(=O)C2CCCCC2)c1 [compound 33, (E)-Methyl 3-(3-(N-((2′-fluoro-4′-methoxy-[1,1′-biphenyl]-4-yl)methyl)cyclohexanecarboxamido)phenyl)acrylate]	++ (‘++’ means Cmpd/Fex > 10 & < 100)	1 to 10 µM
COC(=O)/C=C/c1cccc(N(Cc2ccc(-c3c(F)cccc3F)cc2)C(=O)C2CCCCC2)c1 [compound 59, (E)-Methyl 3-(3-(N-((2′,6′-difluoro-[1,1′-biphenyl]-4-yl)methyl)cyclohexanecarboxamido)phenyl) acrylate]	+ (‘+’ means Cmpd/Fex > 100)	1 to 10 µM

Continued, values first:

Cmpd/Fex (ratio of the EC50 for the test compound relative to the EC50 of the Fexaramine control) (FXR [1])	EC50 (FXR [2])	SMILES
++ (‘++’ means Cmpd/Fex > 10 & < 100)	1 to 10 µM	COC(=O)/C=C/c1cccc(N(Cc2ccc(-c3ccccc3O)cc2)C(=O)C2CCCCC2)c1 [compound 56, (E)-Methyl 3-(3-(N-((2′-hydroxy-[1,1′-biphenyl]-4-yl)methyl)cyclohexanecarboxamido)phenyl) acrylate]
++ (‘++’ means Cmpd/Fex > 10 & < 100)	1 to 10 µM	CCCC(=O)N(Cc1ccc(-c2ccc(N(C)C)cc2)cc1)c1cccc(/C=C/C(=O)OC)c1 [compound 2, (E)-Methyl 3-(3-(N-((4′-(dimethylamino)-[1,1′-biphenyl]-4-yl)methyl)butyramido)phenyl)acrylate]
+++ (‘+++’ means Cmpd/Fex < 10)	1 to 10 µM	COC(=O)/C=C/c1cccc(N(Cc2ccc(-c3ccc(N(C)C)cc3)cc2)C(=O)C(C)(C)C)c1 [compound 1, (E)-Methyl 3-(3-(N-((4′-(dimethylamino)-[1,1′-biphenyl]-4-yl)methyl)pivalamido)phenyl)acrylate]
++ (‘++’ means Cmpd/Fex > 10 & < 100)	1 to 10 µM	CCOC(=O)N(Cc1ccc(-c2ccc(N(C)C)cc2)cc1)c1cccc(/C=C/C(=O)OC)c1 [compound 3, (E)-Methyl 3-(3-(((4′-(dimethylamino)-[1,1′-biphenyl]-4-yl)methyl)(ethoxycarbonyl)amino)phenyl)acrylate]
+++ (‘+++’ means Cmpd/Fex < 10)	≤ 1 µM	COC(=O)/C=C/c1cccc(N(Cc2ccc(-c3ccc(N(C)C)cc3)cc2)C(=O)[C@H]2CC[C@@H](O)CC2)c1 [compound 18, cis-(E)-Methyl 3-(3-(N-((4′-(dimethylamino)-[1,1′-biphenyl]-4-yl)methyl)-4-hydroxycyclohexanecarboxamido)phenyl)acrylate]
